Literature values in paper PMC7904743, “WIDOCK: a reactive docking protocol for virtual screening of covalent inhibitors” (Journal of Computer-Aided Molecular Design, 2021).
Read-outs that look alike come from different tables or passages of the source.

Tests used:
OTUB2 = conditions: experimental actives if % labeling higher than 50%; cited from earlier work
NUDT7 = conditions: protein labeling at 200 μM; experimental actives if % labeling higher than 50%; cited from earlier work
[1] = thiol reactivity, cited from earlier work
[2] = natural log of average rate constant k
[3] = natural logarithm of average rate constant

Compound	OTUB2 % labeling (OTUB2)	NUDT7 % labeling (NUDT7)	ln(avg k) [1, 2]	ln(avg k) [1, 3]
Cn1nc(-c2ccc(Cl)cc2)cc1NC(=O)CCl [PCM-0102296, Cn1nc(-c2ccc(Cl)cc2)cc1NC(=O)CCl]	38%	54%	-15.558	-15.558
O=C(CCl)N1CCN(c2ccccc2Cl)CC1 [PCM-0102297, O=C(CCl)N1CCN(c2ccccc2Cl)CC1]	0%	35%	-14.978	-14.978
O=C(CCl)N1CCCC1c1ccc2c(c1)OCCO2 (centres unmarked) [PCM-0102298, O=C(CCl)N1CCCC1c1ccc2c(c1)OCCO2]	0%	100%	-15.407	-15.407
O=C(CCl)Nc1cc2c(cc1Br)OCCO2 [PCM-0102299, O=C(CCl)Nc1cc2c(cc1Br)OCCO2]	67%	27%	-16.302	-16.302
CCc1cc(C(=O)NNC(=O)CCl)sc1C [PCM-0102300, CCc1cc(C(=O)NNC(=O)CCl)sc1C]	83%	11%	-17.034	-17.034
CC(C)(C)NC(=O)CN1CCN(C(=O)CCl)CC1 [PCM-0102302, CC(C)(C)NC(=O)CN1CCN(C(=O)CCl)CC1]	13%	8%	-15.639	-15.639
CN(C)C(=O)CN1CCN(C(=O)CCl)CC1 [PCM-0102304, CN(C)C(=O)CN1CCN(C(=O)CCl)CC1]	0%	0%	-16.500	-16.500
Cc1cc(CNC(=O)CCl)ccc1F [PCM-0102305, Cc1cc(CNC(=O)CCl)ccc1F]	59%	0%	-16.230	-16.230
O=C(CCl)N1CCN(C(=O)c2cccs2)CC1 [PCM-0102306, O=C(CCl)N1CCN(C(=O)c2cccs2)CC1]	0%	0%	-15.421	-15.421
O=C(CCl)Nc1ccccc1C(=O)O [PCM-0102307, O=C(CCl)Nc1ccccc1C(=O)O]	0%	0%	-17.138	-17.138
O=C(CCl)NC(=O)Nc1ccc(Br)cc1 [PCM-0102308, O=C(CCl)NC(=O)Nc1ccc(Br)cc1]	10%	17%	-16.949	-16.949
CN1C(=O)c2ccc(NC(=O)CCl)cc2C1=O [PCM-0102309, CN1C(=O)c2ccc(NC(=O)CCl)cc2C1=O]	19%	12%	-15.418	-15.418
CC(=O)NNC(=O)CCl [PCM-0102310, CC(=O)NNC(=O)CCl]	18%	0%	-16.812	-16.812
O=C(CCl)Nc1cc2ccccc2cc1C(=O)O [PCM-0102311, O=C(CCl)Nc1cc2ccccc2cc1C(=O)O]	10%	17%	-15.248	-15.248
O=C(CCl)Nc1ccccc1Br [PCM-0102312, O=C(CCl)Nc1ccccc1Br]	0%	15%	-16.261	-16.261
O=C(CCl)N(C1CCCC1)C1CCS(=O)(=O)C1 (centres unmarked) [PCM-0102313, O=C(CCl)N(C1CCCC1)C1CCS(=O)(=O)C1]	0%	11%	-15.397	-15.397
NC(=O)c1ccsc1NC(=O)CCl [PCM-0102314, NC(=O)c1ccsc1NC(=O)CCl]	0%	18%	-15.717	-15.717
CC1(C)C2CCC1(C)C(NC(=O)CCl)C2 (centres unmarked) [PCM-0102315, CC1(C)C2CCC1(C)C(NC(=O)CCl)C2]	0%	0%	-16.417	-16.417

Compound	OTUB2 % labeling (OTUB2)	NUDT7 % labeling (NUDT7)	ln(avg k) [1, 2]	ln(avg k) [1, 3]
O=C(CCl)Nc1ccc(Cl)c([N+](=O)[O-])c1 [PCM-0102316, O=C(CCl)Nc1ccc(Cl)c([N+](=O)[O-])c1]	36%	28%	-15.463	-15.463
COc1cc2c(cc1OC)CN(C(=O)CCl)CC2 [PCM-0102317, COc1cc2c(cc1OC)CN(C(=O)CCl)CC2]	14%	10%	-14.822	-14.822
Cc1ccc(NC(=O)CCl)cc1 [PCM-0102320, Cc1ccc(NC(=O)CCl)cc1]	24%	0%	-16.011	-16.011
O=C(CCl)Nc1ccc(C(F)(F)F)cc1 [PCM-0102323, O=C(CCl)Nc1ccc(C(F)(F)F)cc1]	17%	7%	-15.637	-15.637
COc1ccc2c(c1)CCCN2C(=O)CCl [PCM-0102325, COc1ccc2c(c1)CCCN2C(=O)CCl]	0%	12%	-15.257	-15.257
O=C(CCl)N1CCN(S(=O)(=O)c2cccc(F)c2)CC1 [PCM-0102327, O=C(CCl)N1CCN(S(=O)(=O)c2cccc(F)c2)CC1]	0%	13%	-15.130	-15.130
O=C(CCl)Nc1ccc(F)c(F)c1 [PCM-0102328, O=C(CCl)Nc1ccc(F)c(F)c1]	31%	0%	-15.726	-15.726
COc1ccc2nc(NC(=O)CCl)sc2c1 [PCM-0102330, COc1ccc2nc(NC(=O)CCl)sc2c1]	0%	100%	-15.593	-15.593
O=C(CCl)Nc1cc2c(cc1Cl)OCCCO2 [PCM-0102331, O=C(CCl)Nc1cc2c(cc1Cl)OCCCO2]	26%	36%	-16.178	-16.178
CC1CCCC(NC(=O)NC(=O)CCl)C1C (centres unmarked) [PCM-0102332, CC1CCCC(NC(=O)NC(=O)CCl)C1C]	0%	0%	-15.913	-15.913
O=C(CCl)NC(=O)Nc1ccc2c(c1)OCO2 [PCM-0102333, O=C(CCl)NC(=O)Nc1ccc2c(c1)OCO2]	53%	29%	-15.968	-15.968
CC(NC(=O)CCl)c1ccc(Cl)cc1 (centres unmarked) [PCM-0102334, CC(NC(=O)CCl)c1ccc(Cl)cc1]	25%	0%	-16.367	-16.367
CS(=O)(=O)c1ccc(NC(=O)CCl)cc1 [PCM-0102335, CS(=O)(=O)c1ccc(NC(=O)CCl)cc1]	30%	6%	-15.005	-15.005
O=C(CCl)Nc1ccnn1C1CCCC1 [PCM-0102336, O=C(CCl)Nc1ccnn1C1CCCC1]	19%	0%	-15.629	-15.629
Cc1oc(NC(=O)CCl)c(C#N)c1C [PCM-0102337, Cc1oc(NC(=O)CCl)c(C#N)c1C]	45%	0%	-15.944	-15.944
Cc1ccc(NC(=O)CCl)cc1C [PCM-0102339, Cc1ccc(NC(=O)CCl)cc1C]	82%	18%	-15.536	-15.536
Cc1cccc(CN2CCN(C(=O)CCl)CC2)c1 [PCM-0102340, Cc1cccc(CN2CCN(C(=O)CCl)CC2)c1]	17%	0%	-15.593	-15.593
